# Measurements: article PMC10721329, “Quisinostat is a brain-penetrant radiosensitizer in glioblastoma” (JCI Insight, 2023)
# Where “and” joins values, the source holds several entries; their conditions need not be identical. Equal values may be shown once.
# Tests used:
# [1] = tested on: histone H3 acetylation (H3K9/14ac); experiment: H3K9/14ac immunoblot of normal brain tissue; format: in vivo, athymic nude mice; conditions: QST 10 mg/kg IP MWF 2 weeks, individual mice
# Description: Insufficient drug exposure in the brain is a major hurdle in the treatment of brain tumors. […] On the last treatment day, blood and intact brains were harvested 2 hours after dosing with QST (Figure 6E). […] Each brain hemisphere was processed separately to perform matched PK and PD analyses from the same animal. […] For PD analyses, we homogenized entire hemispheres to obtain whole-tissue protein lysates from each mouse and assessed changes in histone H3 acetylation levels using immunoblotting.
# Cellular protein from cultured cells was homogenized in radioimmunoprecipitation assay (RIPA) lysis buffer containing protease and phosphatase inhibitors (ThermoFisher Scientific), rotated at 4 °C for 20 minutes and then centrifuged at 15,000 rpm for 10 minutes at 4 °C. For histone extractions, benzonase (0.1 U/μL) was added in RIPA buffer (Millipore-Sigma, 70746-4). Protein concentrations from whole-cell extracts were determined using the Bradford Protein Assay (ThermoFisher Scientific). Equal amounts of protein (10-40 μg/lane) were loaded onto 10% or 12.5% sodium dodecyl sulfate–polyacrylamide gel electrophoresis gels and transferred to a polyvinylidene fluoride membrane (Millipore-Sigma). […]
# [2] = Stability in neurobasal cell culture medium at 37°C; format: in vitro ADME; conditions: for %stability: neurobasal cell media, 37C
# Description: (§1) Hydroxamic acid–based compounds have been reported to display poor stability and high plasma clearance due to the presence of arylesterases and carboxylesterases in rodent blood ([34]). Therefore, we measured the stability of QST in mouse plasma and brain to determine whether drug degradation occurred during our sample preparations and equilibrium dialyses for the determination of unbound drug level (performed at 37°C). […] QST degradation was also observed in mouse brain homogenate (Figure 6B). However, perfusion of mice before brain collection prevented rapid drug degradation in the brain matrix. […] Degradation of QST can also be constrained if plasma and brain samples are processed at 4°C (Supplemental Figure 4A). All subsequent sample preparations were therefore performed on ice-cold baths to avoid degradation of QST in our PK analyses. […] The observed stability is probably due to the absence of esterases in human matrices, which are responsible for degradation of QST ([34]). Because we employed QST in several in vitro studies (Figures 1–4), the stability of the molecule was also tested in the cell media used to culture GSCs (neurobasal medium; see Methods).
# (§2) Stability Study in Mouse Plasma, Mouse Brain, Human Plasma, Human Brain, and Neural […]
# (§3) The stability of QST was determined in BALB/c mouse plasma, male nude athymic perfused and nonperfused mouse brain homogenate (1:9 w/v of PBS; pH 7.4), human brain (obtained from VRL Eurofins) homogenate (1:4 w/v of PBS; pH 7.4), pooled human plasma (Innovative Research), and neurobasal media. QST stock solutions (1 mM) were prepared in acetonitrile, subsequently diluted in a 40% methanol mixture, and added t o the matrices to make final concentrations of 100 nM or 10 nM. Then 50 or 30 µL of either plasma or brain homogenate containing QST were aliquoted into 1.5-mL microcentrifuge tubes (Eppendorf) and were incubated at either 4 °C or 37 °C for 0, 2, 4, 6, 12, or 24 hours (n = 3 at each time point). […]
# (§4) Plasma and brain […]
# (§5) homogenate samples were stored at −80 °C until LC-MS/MS analysis. […]
# [3] = Stability in human brain homogenate at 37°C; format: in vitro ADME; conditions: for %stability in human brain homogenate, mean / stability in human brain homogenate, [QST], % of control: 37 C; for stability in human brain homogenate, [QST], % of control: single data points
# Description: as §1, §2, §3, §4, §5
compound,measurement,setting,value
"Cn1cc(CNCC2CCN(c3ncc(C(=O)NO)cn3)CC2)c2ccccc21 [QST, quisinostat]",H3K9/14ac levels normalized to B-actin (fold change),[1],2.1642 and 2.588 and 3.2892 and 1.999 and 1.763
same,%stability,"[2]; 10 nM, time 0 hrs (15 minutes used as zero hour time point)",101.6% and 100.2% and 98.2%
same,%stability,"[2]; 10 nM, time 0 hrs (15 minutes used as zero hour time point), mean",100.0%
same,%stability,"[2]; 10 nM, time 2 hrs",102.7% and 80.7% and 97.1%
same,%stability,"[2]; 10 nM, time 2 hrs, mean",93.5%
same,%stability,"[2]; 10 nM, time 5 hrs",88.0% and 90.7% and 90.1%
same,%stability,"[2]; 10 nM, time 5 hrs, mean",89.6%
same,%stability,"[2]; 10 nM, time 24 hrs",69.7% and 66.1%
same,%stability,"[2]; 10 nM, time 24 hrs, mean",68.5%
same,%stability,"[2]; 100 nM, time 0 hrs (15 minutes used as zero hour time point)",85.1% and 110.5% and 104.4%
same,%stability,"[2]; 100 nM, time 0 hrs (15 minutes used as zero hour time point), mean",100.0%
same,%stability,"[2]; 100 nM, time 2 hrs",109.4% and 82.9% and 110.7%
same,%stability,"[2]; 100 nM, time 2 hrs, mean",101.0%
same,%stability,"[2]; 100 nM, time 5 hrs",95.9% and 77.8% and 80.7%
same,%stability,"[2]; 100 nM, time 5 hrs, mean",84.8%
same,%stability,"[2]; 100 nM, time 24 hrs",73.1% and 67.2% and 68.6%
same,%stability,"[2]; 100 nM, time 24 hrs, mean",69.6%
same,QST intact in cell media,"[2]; neurobasal medium, 24-hour incubation, 37°C",approximately 70%
same,"%stability in human brain homogenate, mean","[3]; 10 nM, 0 hrs",100 % of control
same,"stability in human brain homogenate, [QST], % of control","[3]; 10 nM, 0 hrs",101.7 % of control and 98.5 % of control and 98.3 % of control
same,"%stability in human brain homogenate, mean","[3]; 10 nM, 2 hrs",90.6 % of control
same,"stability in human brain homogenate, [QST], % of control","[3]; 10 nM, 2 hrs",87.5 % of control and 89.1 % of control and 95.1 % of control
same,"%stability in human brain homogenate, mean","[3]; 10 nM, 6 hrs",94.8 % of control
same,"stability in human brain homogenate, [QST], % of control","[3]; 10 nM, 6 hrs",95.6 % of control and 93.7 % of control and 94.9 % of control
same,"%stability in human brain homogenate, mean","[3]; 10 nM, 24 hrs",82.9 % of control
same,"stability in human brain homogenate, [QST], % of control","[3]; 10 nM, 24 hrs",83.1 % of control and 81 % of control and 84.6 % of control
same,"%stability in human brain homogenate, mean","[3]; 100 nM, 0 hrs",100 % of control
same,"stability in human brain homogenate, [QST], % of control","[3]; 100 nM, 0 hrs",98.8 % of control and 102.5 % of control and 98.7 % of control
same,"%stability in human brain homogenate, mean","[3]; 100 nM, 2 hrs",89.0 % of control
same,"stability in human brain homogenate, [QST], % of control","[3]; 100 nM, 2 hrs",90.7 % of control and 89.5 % of control and 86.8 % of control
same,"%stability in human brain homogenate, mean","[3]; 100 nM, 6 hrs",92.7 % of control
same,"stability in human brain homogenate, [QST], % of control","[3]; 100 nM, 6 hrs",93.9 % of control and 90.6 % of control and 93.7 % of control
same,"%stability in human brain homogenate, mean","[3]; 100 nM, 24 hrs",84.4 % of control
same,"stability in human brain homogenate, [QST], % of control","[3]; 100 nM, 24 hrs",81.6 % of control and 84.2 % of control and 87.3 % of control
same,stability in human brain homogenate,[3]; 37°C,completely stable
